Measured values as given in patent US20180243421A1, “IMMUNOSTIMULATING AGENT” (AJINOMOTO CO., INC., priority 2015, published 2018).

System: anti-OVA-specific IgG1 subclass antibody
Assay: Adjuvant activity: anti-OVA-specific IgG1 subclass antibody in serum after secondary immunization (Examples 1, 5, 7, 8; ELISA absorbance)
Type: in vivo, BALB/c mice
Description: Two weeks from the secondary immunization, the whole blood was extracted under anesthesia, and the obtained serum sample was measured for anti-OVA-specific IgG1 subclass antibody.
A method for measurement of the anti-OVA-specific IgG1 subclass antibody in Example 1, and the following Examples 5, 7 and 8 is as follows.
Measurement Method of anti-OVA-specific IgG1 Subclass Antibody
To a 96 well plate was added 5 μg/ml OVA at 100 μl/well, and the mixture was incubated at 4° C. overnight. After incubation, the mixture was washed three times with 200 μl of PBS-T (PBS+0.05%(v/v) Tween 20) per well, and blocked with 100 μl of 5% FCS/PBS solution per well at room temperature for 1 to 2 hr. Thereafter, the mixture was washed three times with PBS-T (200 μl/well), a diluted serum sample (100 μl/well) or the same amount of 5% FCS/PBS solution as a control was added, and the mixture was incubated at 37° C. for 1 hr. Thereafter, the mixture was washed five times with PBS-T (200 μl/well), a diluted biotinylated anti-mouse IgG1 antibody (100 μl/well) was added, and the mixture was incubated at 37° C. for 45 min. Thereafter, the mixture was washed five times with PBS-T (200 μl/well), a diluted anti-biotin-HRP antibody was added (100 μl/well), and the mixture was incubated at 37° C. for another 30 min. Thereafter, the mixture was washed five times with PBS-T (200 μl/well), TMB substrate solution was added (100 μl/well), and the mixture was incubated at room temperature for 10 to 15 min. Thereafter, a reaction quenching liquid (2N sulfuric acid solution) was added (50 μl/well) to discontinue a color developing reaction, and the absorbance (OD Value=450 nm) was measured by a microplate reader.

[1] = Example 8, same manner as Example 7
[2] = Example 7, same manner as Example 1, plus Addavax group

CCCCCCCCCCCCCCCC(=O)N[C@@H](Cc1ccccc1)C(=O)OC [SZ80, N-hexadecanoyl-L-phenylalanine methyl ester]
adjuvant activity (IgG1) compared with Alum (Example 8): equivalent to or not less than that of Alum | anti-OVA-specific IgG1 subclass antibody production as compared to the OVA single administration group [1]: significantly increased

CCCCCCCCCCCCCCCC(=O)N[C@@H](CCCCN)C(=O)OC.O=C(O)C(F)(F)F [SZ81, N^2-hexadecanoyl-L-lysine methyl ester trifluoroacetic acid salt]
adjuvant activity (IgG1) compared with Alum (Example 8): equivalent to or not less than that of Alum | anti-OVA-specific IgG1 subclass antibody production compared with Alum (Example 8): equivalent to that of Alum | anti-OVA-specific IgG1 subclass antibody production as compared to the OVA single administration group [1]: a significant difference was not found

CCCCCCCCCCCCCCCCCCCCCC(=O)NCC(=O)OC [SZ69, N-docosanoyl glycine methyl ester]
adjuvant activity (IgG1) compared with Alum (Example 7): equivalent to or not less than that of Alum | anti-OVA-specific IgG1 subclass antibody production as compared to the OVA single administration group [2]: significantly increased

CCCCCCCCCCCCCCCCCCCCCC(=O)N[C@H](C(=O)OC)[C@@H](C)CC [SZ76, N-docosanoyl-L-isoleucine methyl ester]
adjuvant activity (IgG1) compared with Alum (Example 7): equivalent to or not less than that of Alum | anti-OVA-specific IgG1 subclass antibody production as compared to the OVA single administration group [2]: significantly increased

CCCCCCCCCCCCCCCC(=O)NCC(=O)OC [SZ78, N-hexadecanoyl glycine methyl ester]
adjuvant activity (IgG1) compared with Alum (Example 8): equivalent to or not less than that of Alum | anti-OVA-specific IgG1 subclass antibody production compared with Alum (Example 8): equivalent to that of Alum | anti-OVA-specific IgG1 subclass antibody production as compared to the OVA single administration group [1]: a significant difference was not found

CCCCCCCCCCCCCCCC(=O)N[C@@H](CC(C)C)C(=O)OC [SZ79, N-hexadecanoyl-L-leucine methyl ester]
adjuvant activity (IgG1) compared with Alum (Example 8): equivalent to or not less than that of Alum | anti-OVA-specific IgG1 subclass antibody production compared with Alum (Example 8): equivalent to that of Alum | anti-OVA-specific IgG1 subclass antibody production as compared to the OVA single administration group [1]: a significant difference was not found

CCCCCCCCCCCCCCCCCCCCCC(=O)N[C@H](C(=O)OC)C(C)C [SZ77, N-docosanoyl-L-valine methyl ester]
adjuvant activity (IgG1) compared with Alum (Example 7): equivalent to or not less than that of Alum | anti-OVA-specific IgG1 subclass antibody production as compared to the OVA single administration group [2]: significantly increased

CCCCCCCCCCCCCCCCCCCCCC(=O)N[C@@H](CCCCN)C(=O)OC.O=C(O)C(F)(F)F [SZ73, N^2-docosanoyl-L-lysine methyl ester trifluoroacetic acid salt]
adjuvant activity (IgG1) compared with Alum (Example 7): equivalent to or not less than that of Alum | anti-OVA-specific IgG1 subclass antibody production as compared to the OVA single administration group [2]: significantly increased

CCCCCCCCCCCCCCCCCCCCCC(=O)N[C@@H](CCC(=O)O)C(=O)OC [SZ72, N-docosanoyl-L-glutamic acid 1-methyl ester]
adjuvant activity (IgG1) compared with Alum (Example 7): equivalent to or not less than that of Alum | anti-OVA-specific IgG1 subclass antibody production as compared to the OVA single administration group [2]: significantly increased

CCCCCCCCCCCCCCCC(=O)N[C@@H](CCC(=O)O)C(=O)OC [SZ82, N-hexadecanoyl-L-glutamic acid 1-methyl ester]
adjuvant activity (IgG1) compared with Alum (Example 8): equivalent to or not less than that of Alum | anti-OVA-specific IgG1 subclass antibody production as compared to the OVA single administration group [1]: significantly increased
